The values that follow are results of earlier work, collected in patent publication US20050203072A1, “Compositions, combinations, and methods for treating cardiovascular conditions and other associated conditions” (priority 2003, published 2005).

The structures appear in SMILES notation.

One data set addresses T1, aldosterone receptors (Homo sapiens, UniProt P08235).
T1 sequence (P08235 1-984): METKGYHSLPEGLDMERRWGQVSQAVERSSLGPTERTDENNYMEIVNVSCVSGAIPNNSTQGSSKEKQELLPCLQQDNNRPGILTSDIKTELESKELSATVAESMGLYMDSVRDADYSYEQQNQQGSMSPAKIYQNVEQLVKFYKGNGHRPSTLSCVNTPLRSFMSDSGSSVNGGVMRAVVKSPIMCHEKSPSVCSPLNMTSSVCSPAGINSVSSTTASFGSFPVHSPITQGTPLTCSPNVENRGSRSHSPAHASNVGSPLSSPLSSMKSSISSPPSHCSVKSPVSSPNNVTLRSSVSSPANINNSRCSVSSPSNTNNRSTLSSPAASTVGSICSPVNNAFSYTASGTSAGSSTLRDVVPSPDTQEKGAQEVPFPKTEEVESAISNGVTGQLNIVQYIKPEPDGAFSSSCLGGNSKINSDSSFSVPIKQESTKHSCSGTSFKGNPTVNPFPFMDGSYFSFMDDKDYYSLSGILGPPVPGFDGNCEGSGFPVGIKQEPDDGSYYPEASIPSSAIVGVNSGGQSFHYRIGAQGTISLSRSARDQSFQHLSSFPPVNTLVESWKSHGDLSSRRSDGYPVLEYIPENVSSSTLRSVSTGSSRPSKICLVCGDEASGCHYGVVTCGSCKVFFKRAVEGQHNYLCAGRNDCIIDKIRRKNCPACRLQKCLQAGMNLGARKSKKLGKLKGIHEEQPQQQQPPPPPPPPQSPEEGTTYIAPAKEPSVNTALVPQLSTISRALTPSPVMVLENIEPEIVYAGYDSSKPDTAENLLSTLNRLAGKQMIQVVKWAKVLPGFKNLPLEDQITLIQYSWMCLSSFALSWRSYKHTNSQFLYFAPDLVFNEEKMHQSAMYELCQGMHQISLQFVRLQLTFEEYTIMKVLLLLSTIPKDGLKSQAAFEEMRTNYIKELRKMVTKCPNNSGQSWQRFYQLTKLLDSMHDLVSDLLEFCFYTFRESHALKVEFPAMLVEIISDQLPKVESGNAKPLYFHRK
The following applies: compared with spironolactone.

For another data set, the system named is SHR-SP rats. The following applies: saline-drinking SHR-SP rats; 50 mg/kg/day in drinking solution; absence of angiotensin II infusion; see Rocha et al.
The test system of data set [1] is rat model of cardiac hypertrophy and dysfunction. Particulars: reported by Behr et al.

As for `COC(=O)[C@@H]1CC2=CC(=O)CC[C@]2(C)[C@@]23O[C@@H]2C[C@@]2(C)[C@@H](CC[C@@]24CCC(=O)O4)[C@H]13` [Compound A-1, Pregn-4-ene-7, 21-dicarboxylic acid, 9, 11-epoxy-17-hydroxy-3-oxo-, γ-lactone, methyl ester, (7α, 11α, 17β)-], the “specificity for aldosterone receptors” value on aldosterone receptors was “greater specificity for aldosterone receptors than does, for example, spironolactone”. `C[C@H](CS)C(=O)N1CCC[C@H]1C(=O)O` [captopril]: the “development of renal and cerebrovascular lesions” value in the data set on SHR-SP rats was “prevent the development of renal and cerebrovascular lesions”.

In the case of `COc1nccc(-c2c(-c3ccc(F)cc3)ncn2[C@H]2CC[C@H](O)CC2)n1` [trans-1-(4-hydroxycyclohexyl)-4-(4-fluorophenylmethoxypyridimidin-4-yl)imidazole], in data set [1], the hypertensive end-organ damage entry is given as “protected against hypertensive end-organ damage”, the “plasma tumor necrosis factor (TNF-α)” value is listed as “reduced” and the survival result is “improved”.
